Tested on: hepatocytes
Assay: Seq-Well scRNA-Seq of hepatocytes after APAP overdose (signature scores, DEG vs untreated)
Type: in vivo, mouse
Details: APAP vs UT, composite DEG

Structure (SMILES): CC(=O)Nc1ccc(O)cc1 [APAP, acetaminophen]
- Fam134b logFC: 0.8936
- Fam214a logFC: −0.2658
- Fcgrt logFC: −0.2693
- Fdps logFC: −0.2663
- Fitm1 logFC: −0.3242
- Fkbp4 logFC: −0.3534
- Fmo5 logFC: 0.2862
- Fn1 logFC: 0.6996
- Fpgs logFC: −0.3494
- Ftl1 logFC: 1
- Furin logFC: 0.4056
- Fus logFC: 0.3393
- Fxyd5 logFC: 0.2743
- G0s2 logFC: 0.3465
- G6pc logFC: −0.9601
- Gabarap logFC: −0.4425
- Gabarapl1 logFC: 0.2607
- Gadd45g logFC: −0.614
- Gadd45gip1 logFC: −0.3041
- Gc logFC: 0.2598
- Gcdh logFC: −0.3003
- Gch1 logFC: −0.2825
- Gcnt2 logFC: 0.5375
- Gfra1 logFC: 0.3864
- Ggnbp2 logFC: 0.2726
- Ghr logFC: −0.3648
- Gjb1 logFC: −0.3166
- Glo1 logFC: −0.4066
- Gltscr2 logFC: 0.2553
- Glud1 logFC: 0.451
- Glyctk logFC: −0.2977
- Gm2a logFC: 0.3831
- Gm2788 logFC: −0.2831
- Gm4951 logFC: −0.3221
- Gm6484 logFC: 0.3043
- Gm10800 logFC: 0.5626
- Gm10801 logFC: 0.2659
- Gm23935 logFC: 1
- Gm24245 logFC: 0.5465
- Gm24270 logFC: 0.268
- Gne logFC: −0.4251
- Gnmt logFC: −0.4604
- Golga4 logFC: 0.3521
- Gpam logFC: 0.2504
- Gpld1 logFC: 0.3281
- Grhpr logFC: −0.3531
- Grlf1 logFC: 0.295
- Grn logFC: 0.5408
- Gsk3b logFC: 0.4065
- Gsta1 logFC: 0.4076
- Gsta3 logFC: −0.8063
- Gstk1 logFC: −0.2828
- Gstm4 logFC: −0.3809
- Gstp1 logFC: −0.8558
- Gstt3 logFC: 0.3507
- Gtpbp4 logFC: 0.4822
- Gyk logFC: 0.4024
- Gys2 logFC: 0.2744
- H6pd logFC: 0.3437
- Hadh logFC: 0.2888
- Hagh logFC: −0.674
- Hamp logFC: −1.021
- Hba-a1 logFC: 0.735
- Hba-a2 logFC: 0.5535
- Hbb-bt logFC: 1.43
- Hdac11 logFC: −0.3368
- Hdlbp logFC: 0.5651
- Herpud1 logFC: 0.5136
- Hgd logFC: −0.7586
- Hgfac logFC: 0.2522
- Hibch logFC: −0.3271
- Hint1 logFC: −0.6739
- Hipk3 logFC: 0.3394
- Hist1h1c logFC: −0.3009
- Hmgcl logFC: 0.4738
- Hmgcr logFC: 0.4167
- Hmgcs1 logFC: −0.3491
- Hnf4a logFC: 0.8791
- Hnrnpdl logFC: 0.398
- Hp logFC: 0.4313
- Hsd3b3 logFC: −0.7795
- Hsd3b5 logFC: −1.07
- Hsd3b7 logFC: −1.006
- Hsd17b4 logFC: 0.2532
- Hsd17b10 logFC: −0.3772
- Hsd17b13 logFC: 0.6808
- Hsp90ab1 logFC: 0.3227
- Hsp90b1 logFC: 0.5342
- Hspa5 logFC: 0.6105
- Hspa8 logFC: 0.4204
- Huwe1 logFC: 0.3879
- Hyou1 logFC: 0.8465
- Id3 logFC: −0.3511
- Ide logFC: 0.2517
- Ifrd1 logFC: 0.4904
- Igf1 logFC: 0.2958
- Iigp1 logFC: 0.7688
- Il1b logFC: 0.7429
- Il1r1 logFC: 1.245
- Il4ra logFC: 0.2574
- Il6ra logFC: 0.3044
- Ildr2 logFC: 0.2676
- Insig2 logFC: 0.67
- Ipo5 logFC: 0.2687
- Iqgap1 logFC: 0.4554
- Iqgap2 logFC: 0.2547
- Ireb2 logFC: 0.2657
- Itih3 logFC: 0.5462
- Itih4 logFC: 0.5251
- Jhdm1d logFC: 0.3041
- Kdelr2 logFC: 0.3977
- Khk logFC: −0.4915
- Kif1b logFC: 0.3718
- Kif5b logFC: 0.5012
- Kif21a logFC: 0.4042
- Klf3 logFC: 0.2674
- Klf6 logFC: 0.7324
- Klf9 logFC: 0.2934
- Kng1 logFC: 0.2658
- Krt8 logFC: 1.196
- Krt18 logFC: 1.258
- Lamp1 logFC: 0.2683
- Lap3 logFC: −0.3644
- Larp4b logFC: 0.3421
- Lasp1 logFC: 0.253
- Lcat logFC: 0.4361
- Lcp1 logFC: 0.484
- Lgals9 logFC: −0.27
- Lifr logFC: −0.6262
- Lipa logFC: 0.4183
- Litaf logFC: 0.3944
- Lpgat1 logFC: 0.5952
- Lpin2 logFC: 0.6867
- Lrg1 logFC: 0.4908
- Lrrc58 logFC: 1.001
- Lrrfip2 logFC: 0.3731
- Lsmd1 logFC: −0.3131
- Lyz2 logFC: 0.7322
- Macf1 logFC: 0.4042
- Magt1 logFC: 0.2633
- Man2a1 logFC: 0.4971
- Maob logFC: 0.3204
- Map3k5 logFC: 0.3347
- Mapk6 logFC: 0.2568
- Mat2a logFC: 0.4826
- Mbl2 logFC: −0.3465
- Mbnl1 logFC: 0.4513
- Mcee logFC: −0.3199
- Mcl1 logFC: 0.5709
- Mdh1 logFC: −0.3077
- Mdm2 logFC: 0.3283
- Med13 logFC: 0.2949
- Met logFC: 0.2883
- Metap2 logFC: 0.3686
- Mettl7a1 logFC: −0.3221
- Mettl7b logFC: −0.4527
- Mettl20 logFC: −0.3314
- Mgll logFC: 0.3339
- Mgst1 logFC: −1.06
- Mia3 logFC: 0.3646
- Mien1 logFC: −0.3704
- Mki67ip logFC: 0.3184
- Mlycd logFC: 0.313
- Mmp8 logFC: 0.359
- Mocs2 logFC: −0.3467
- Mpeg1 logFC: 0.4935
- Mrap logFC: 0.8841
- Mrc1 logFC: 0.3404
- Mrp63 logFC: −0.4422
- Mrpl12 logFC: −0.3082
- Mrpl33 logFC: −0.2654
- Mrps18c logFC: −0.3663
- Mrps24 logFC: −0.3904
- Mtdh logFC: 0.3047
- Mthfd2 logFC: 0.2624
- Mtss1 logFC: 0.2876
- Mttp logFC: 0.3115
- Mtus1 logFC: 0.3621
- Mup1 logFC: 1
- Mup4 logFC: −1.087
- Mup8 logFC: −0.7958
- Mup13 logFC: −0.7757
- Mup14 logFC: −0.7608
- Mup20 logFC: −0.4762
- Mxd1 logFC: 0.2978
- Mybbp1a logFC: 0.4312
- Myh9 logFC: 1.16
- Myl12a logFC: 0.3908
- Nadk2 logFC: 0.2579
- Naprt1 logFC: −0.3381
- Narf logFC: 0.2629
- Nars logFC: 0.4378
- Ncl logFC: 0.4845
- Ndufa1 logFC: −0.3645
- Ndufa2 logFC: −0.3965
- Ndufa3 logFC: −0.4116
- Ndufa4 logFC: −0.6831
- Ndufb3 logFC: −0.3272
- Ndufb8 logFC: −0.3481
- Ndufb10 logFC: −0.3004
- Ndufc1 logFC: −0.3444
- Ndufc2 logFC: −0.4253

From patent US20230053540A1, “TREATMENT OF LIVER INJURY” (Massachusetts Institute of Technology, priority 2019, published 2023)
